{
  "source": "paper PMC5597121",
  "about": "“The human bitter taste receptor T2R38 is broadly tuned for bacterial compounds” (PLoS ONE, 2017)",
  "key": {"[1]": {"system": "mock transfected cells (empty vector)", "test": "Single cell calcium imaging, control: mock transfected (empty vector) Peakrapid cells", "assay_type": "cell-based, human", "protocol": "(§1) The Peakrapid cell line expressing stably a chimeric Gα16gustducin44 G protein [21] was used. 40 000 cells were seeded in each well of a black/clear poly-D-lysine cellware pre-coated 96-well plate (Biocoat®, Becton-Dickinson, Erembodegem, Belgium) and transiently transfected with 50 ng of plasmid DNA containing the receptor sequence or not (empty vector) and with 50 ng of chaperone protein RTP4 per well. Forty hours after transfection, cells were incubated with the calcium-sensitive dye Fluo4 (Life Technologies, Oregon, USA) solubilized at 10 μg/ml in a buffer containing EMEM (150 mM NaCl, 5 mM KCl, 2 mM CaCl2, 1.2 mM MgCl2, 10 mM glucose), 10 mM HEPES, 0.01% (v/v) Pluronic F127, 0.1% (w/v) bovine serum albumin. After 1 h incubation at 37°C, cells were rinsed twice with the same buffer without Fluo4 and left in 50 μl buffer (prior ligand injection). Measurement were performed on a platform based on a motorized Axiobserver Z1 fluorescence microscope piloted by a Axiovision software (Zeiss, Jena, Germany) as described previously. For each selected well, images were taken 1 per second, during 30 seconds. 50 μl of the buffer containing the ligand twice concentrated was injected on the 2nd second of the time lapse record.\n(§2) After time lapse record, the number of responding cells in each injected well was determined using ImageJ 1.34 (Rasband, W.S., ImageJ, National Institutes of Health, Bethesda, Maryland, USA, http://rsb.info.nih.gov/ij/1997-2004), and expressed as the percentage of the surface of a microscope field covered by activated cells with respect to the total surface of the field covered by confluent cells. Automated determination of the surface occupied by responding cells is easier to perform than a cell counting. The resulting percentage of positive surface provided a convenient estimation of the percentage of responding cells, as observed by comparing the percentage of positive surface and percentage of responsive cells determined by direct counting, in the same experiment. In agreement with the literature, the percentage of responding cells was proportional to the agonist concentration. During experiment in each plate, at least 2 wells were tested with phenylthiocarbamide (PTC) at 0.1 mM, which is one of the best characterized agonist of T2R38 in the literature. The activation of T2R38 by PTC allows normalization of the result of other tested molecules. The results were thus expressed as the percentage of PTC activation. In scaling calcium imaging assays using this latter receptor, concentration-responses curves were performed and data were fitted to a four parameter logistic equation: y=min+ (max− min)/1+10 ^(logEC50−x)nH . Min and max are the minimum and the maximum values of the percentage of cell-activated surface respectively, y is the percentage of cell-activated surface at the x concentration and nH is the Hill coefficient."}, "T2R38": {"molecular_target": "T1, T2R38 (Homo sapiens, UniProt P59533, A49P/I296V)", "T1 construct": "leader: first 45 amino acids of rat somatostatin receptor subtype 3 (SSTR3) (N); expressed in transfected cells; host or cells: Peakrapid cells (HEK293 derivative, ATCC CRL-2828) stably expressing Galpha16gustducin44, co-transfected with human RTP4", "T1 sequence (P59533 1-333 A49P/I296V)": "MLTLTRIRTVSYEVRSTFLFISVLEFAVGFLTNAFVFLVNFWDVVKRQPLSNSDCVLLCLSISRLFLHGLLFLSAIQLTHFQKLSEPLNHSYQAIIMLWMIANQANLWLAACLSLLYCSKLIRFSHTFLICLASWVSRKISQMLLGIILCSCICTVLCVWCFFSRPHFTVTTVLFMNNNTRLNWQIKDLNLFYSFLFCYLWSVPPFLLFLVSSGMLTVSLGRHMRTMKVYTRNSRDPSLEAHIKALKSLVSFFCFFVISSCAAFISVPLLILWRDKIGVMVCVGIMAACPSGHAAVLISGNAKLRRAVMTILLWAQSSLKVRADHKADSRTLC", "test": "Single cell calcium imaging, Peakrapid cells (Gα16gustducin44) transiently transfected with T2R38", "assay_type": "cell-based", "conditions": "for EC50: concentration-response curve, read-out: EC50; for specific activation of T2R38: ethanol-solubilized; for response of T2R38: solubilized in the aqueous buffer, 2 mM", "description": "The coding sequences of either the functional (PAV, GenBank accession number AY258597.1) and non-functional (AVI, GenBank accession number AF494231.1) were amplified from human genomic DNA by polymerase chain reaction.\nThese coding sequences were cloned in a pEFIB backbone vector in translational fusion with the coding sequence of a leader sequence corresponding to the 45 first amino acids of the rat somatostatin receptor subtype 3 [20]. The constructs were verified by sequencing. The coding sequence of RTP4 (Genbank accession number AY562238.1) was amplified from human spleen cDNA and cloned a pCI backbone vector.\nThe Gα16gustducin44 sequence was generated by swapping the last 132 nucleotides of the G α16 with the corresponding terminal sequence of the Gα-gustducin [21] and was cloned in a pIRES-Puro plasmid. This vector was transfected in the Peakrapid cell line (ATCC reference: CRL-2828™; purchased from LGC Standards SARL, Molsheim, FRANCE), HEK293 cell line derivative, cultured in EMEM culture medium (reference BE12-136F; Lonza, Vervier, BELGIUM) supplemented with 10% of foetal bovine serum (Sigma-Aldrich, Bornem, Belgium) and 1 μg/ml of Puromycin to allow the selection of recombinant cell populations. Cell clones expressing the Gα16gustducin44 were selected and the clone presenting the best functional response of T2R38 to phenylthicarbamide was used for the study (see below).\nas §1\nas §2, with “In scaling calcium imaging assays using this latter receptor, concentration-responses curves were performed and data were fitted to a four parameter logistic equation: y=min+ (max− min)/1+10 ^(logEC50−x)nH . Min and max are the minimum and the maximum values of the percentage of cell-activated surface respectively, y is the percentage of cell-activated surface at the x concentration and nH is the Hill coefficient.” left out"}, "[2]": {"conditions": "2mM (no organic solvent), listed as HSL-C4"}, "[3]": {"conditions": "2mM in DMSO 1.5%, listed as HSL-C4"}, "[4]": {"conditions": "2mM in EtOH 0,4%, listed as HSL-C4"}},
  "note": "Where “and” joins values, the source holds several entries; their conditions need not be identical. Equal values may be shown once. Read-outs that look alike come from different tables or passages of the source.",
  "data": [
    {"smiles": "CSSC", "note": "[dimethyldisulfide, dimethyl disulfide]", "values": [
      {"measurement": "percentage of surface covered by activated cells", "setting": "[1]; dimethyldisulfide 0.00251189, log10[ ] -2.6", "value": "0.21% and 0.13% and 0.27% and 1.93% and 1.05% and 0.36% and 1.26%"},
      {"measurement": "agonist activity on T2R38 (in words)", "setting": "T2R38", "value": "able to specifically trigger this receptor"},
      {"measurement": "EC50", "setting": "T2R38", "value": 3000, "unit": "µM"},
      {"measurement": "surface covered by activated cells (given as fraction)", "setting": "T2R38; dimethyldisulfide 0.000251189, log10[ ] -3.6, experiment 6", "value": "0.0087 and 0.0151"},
      {"measurement": "surface covered by activated cells (given as fraction)", "setting": "T2R38; dimethyldisulfide 0.000398107, log10[ ] -3.4, experiment 6", "value": "0.0033 and 0.0066"},
      {"measurement": "surface covered by activated cells (given as fraction)", "setting": "T2R38; dimethyldisulfide 0.000630957, log10[ ] -3.2, experiment 6", "value": "0.0100 and 0.0078"},
      {"measurement": "surface covered by activated cells (given as fraction)", "setting": "T2R38; dimethyldisulfide 0.001, log10[ ] -3, experiment 6", "value": "0.0079 and 0.0134"},
      {"measurement": "surface covered by activated cells (given as fraction)", "setting": "T2R38; dimethyldisulfide 0.00158489, log10[ ] -2.8, experiment 6", "value": "0.0310 and 0.0369"},
      {"measurement": "surface covered by activated cells (given as fraction)", "setting": "T2R38; dimethyldisulfide 0.00398107, log10[ ] -2.4, experiment 6", "value": 0.1269},
      {"measurement": "logEC50", "setting": "T2R38; given in the concentration-response curve", "value": -2.54},
      {"measurement": "Emax (% of positive control)", "setting": "T2R38; percentage of the response elicited by 0.1 mM PTC", "value": "46 % of positive control"}
    ]},
    {"smiles": "CCCC(=O)N[C@H]1CCOC1=O", "note": "[C4HSL, N-butyryl-L-homoserine lactone, reference compound]", "values": [
      {"measurement": "percentage of surface covered by activated cells", "setting": "[1]; [2]", "value": "0.08% and 2.07% and 0.35% and 0.32% and 0.65% and 0.13%"},
      {"measurement": "percentage of surface covered by activated cells", "setting": "[1]; [3]", "value": "0.56% and 1.82% and 1.06% and 0.36% and 0.33% and 0.98%"},
      {"measurement": "percentage of surface covered by activated cells", "setting": "[1]; [4]", "value": "0.40% and 0.69% and 0.43% and 0.56% and 1.49% and 0.68%"},
      {"measurement": "agonist activity on T2R38 (in words)", "setting": "T2R38", "value": "are not agonists of the receptor in our hands"},
      {"measurement": "percentage of surface covered by activated cells", "setting": "T2R38; [2]", "value": "0.38% and 0.93% and 0.34% and 0.53% and 0.11% and 0.17%"},
      {"measurement": "percentage of surface covered by activated cells", "setting": "T2R38; [3]", "value": "6.92% and 3.48% and 5.97% and 2.36% and 9.56% and 4.46%"},
      {"measurement": "percentage of surface covered by activated cells", "setting": "T2R38; [4]", "value": "0.27% and 1.95% and 2.21% and 0.24% and 0.29% and 1.29%"},
      {"measurement": "average calcium response, % of the one induced by 0.1 mM of PTC", "setting": "T2R38; dissolved in DMSO 1.5% (209 mM)", "value": 33, "unit": "%"},
      {"measurement": "specific activation of T2R38", "setting": "T2R38", "value": "did not trigger a specific activation of T2R38"},
      {"measurement": "specific activation of T2R38", "setting": "T2R38; listed as HSLC4", "value": "remained without effect on the receptor"},
      {"measurement": "response of T2R38", "setting": "T2R38", "value": "did not elicit a response of T2R38"},
      {"measurement": "response of T2R38", "setting": "T2R38; listed as HSLC4", "value": "remained without effect on the receptor"}
    ]},
    {"smiles": "NC(=S)Nc1ccccc1", "note": "[PTC, phenylthiocarbamide, reference compound]", "values": [
      {"measurement": "percentage of surface covered by activated cells", "setting": "[1]; PTC 1e-7 M", "value": "0.29% and 0.31% and 0.20%"},
      {"measurement": "percentage of surface covered by activated cells", "setting": "[1]; PTC 5.31987e-7 M", "value": "0.69% and 0.47%"},
      {"measurement": "percentage of surface covered by activated cells", "setting": "[1]; PTC 7.66061e-7 M", "value": "0.32% and 0.90%"},
      {"measurement": "percentage of surface covered by activated cells", "setting": "[1]; PTC 1e-6 M", "value": "0.45% and 0.40% and 0.59%"},
      {"measurement": "percentage of surface covered by activated cells", "setting": "[1]; PTC 3.16456e-6 M", "value": "0.30% and 0.15% and 0.74%"},
      {"measurement": "percentage of surface covered by activated cells", "setting": "[1]; PTC 1e-5 M", "value": "0.11% and 0.26% and 0.07%"},
      {"measurement": "percentage of surface covered by activated cells", "setting": "[1]; PTC 0.0001 M", "value": "0.06% and 0.11%"},
      {"measurement": "response of empty vector transfected cells (S7_fig raw data)", "setting": "[1]; PTC 0.1 mM, empty vector, experiments 1-5", "value": "0.078% and 0.55% and 0.518% and 0.35% and 0.26%"},
      {"measurement": "percentage of surface covered by activated cells", "setting": "[1]; PTC 0.001 M", "value": "0.59% and 0.12% and 0.20%"},
      {"measurement": "percentage of surface covered by activated cells", "setting": "T2R38; PTC 1e-7 M", "value": "0.32% and 0.0439% and 0.30% and 0.38% and 0.0433% and 0.37%"},
      {"measurement": "percentage of surface covered by activated cells", "setting": "T2R38; PTC 5.31987e-7 M", "value": "0.29% and 0.21% and 0.40% and 0.74%"},
      {"measurement": "percentage of surface covered by activated cells", "setting": "T2R38; PTC 7.66061e-7 M", "value": "0.42% and 0.94% and 0.57%"},
      {"measurement": "percentage of surface covered by activated cells", "setting": "T2R38; PTC 1e-6 M", "value": "0.15% and 0.33% and 0.74% and 1.61% and 0.19% and 0.16%"},
      {"measurement": "percentage of surface covered by activated cells", "setting": "T2R38; PTC 3.16456e-6 M", "value": "0.91% and 1.80% and 0.81% and 1.93% and 1.12% and 1.19%"},
      {"measurement": "percentage of surface covered by activated cells", "setting": "T2R38; PTC 1e-5 M", "value": "9.30% and 8.69% and 5.20% and 5.77% and 8.28% and 3.33%"},
      {"measurement": "percentage of surface covered by activated cells", "setting": "T2R38; PTC 0.0001 M", "value": "16.96% and 16.52% and 12.58% and 13.19% and 14.04% and 11.95%"},
      {"measurement": "response of T2R38 PAV transfected cells (S7_fig raw data)", "setting": "T2R38; PTC 0.1 mM, T2R38 PAV, experiments 1-5", "value": "30% and 29% and 24% and 17% and 23%"},
      {"measurement": "percentage of surface covered by activated cells", "setting": "T2R38; PTC 0.001 M", "value": "16.18% and 8.32% and 10.10% and 7.45% and 11.65% and 8.92%"},
      {"measurement": "EC50", "setting": "T2R38; mean ± SEM of n = 3 experiments", "value": "9.7 ± 0.4", "unit": "µM"}
    ]}
  ]
}
